# Literature values as cited in patent US11191866B2, “Dressing enabling the controlled and prolonged release of metformin” (Urgo Recherche Innovation et Developpement, priority 2016, dated 2021).
# Conditions: rats; radioactively marked, deposited on a wound in a gel
smiles,measurement,value
CN(C)C(=N)N=C(N)N [metformin],time remaining at the local level on the wound,remained for a very short period of time at the local level
